Reference: publication PMC10889811, “Potential Candidate Molecule of Photosystem II Inhibitor Herbicide—Brassicanate A Sulfoxide” (International Journal of Molecular Sciences, 2024)

Biological target: T1, photosystem II D1 protein (PSBD1; psbA)
T1 construct: gene psbA1; psbA cloned BamHI/HindIII into pFastBac1; expressed in Sf9 insect cells; His-tagged (kept, captured on NTA sensor), Ni column from sonicated pellet supernatant; recombinant plasmid printed as 5238 bp, small for a full-length psbA insert; isolated D1 without other PSII subunits or cofactors; PDB 7ZCL is the docking model only
Assay: biolayer interferometry (Octet R8, NTA sensor)
Assay type: binding
Details: PBS, 5% DMSO; analyte 1 mM; His-tagged protein immobilised on NTA sensor; read-out: affinity constant

COC(=O)c1c([S+](C)[O-])[nH]c2ccccc12 (stereo not shown) [brassicanate A sulfoxide] was tested, and the Kd was 2690 µM.
